According to publication PMC6197744, “Triazolo[4,5-d]pyrimidines as Validated General Control Nonderepressible 2 (GCN2) Protein Kinase Inhibitors Reduce Growth of Leukemia Cells” (Computational and Structural Biotechnology Journal, 2018):

Experiments:
Assay in all cases: NCI-60 one-dose screen
Assay type in all cases: cell-based
A498 = settings: Homo sapiens; Renal A498, 10 μM, 48 h; read-out: Percent growth inhibition
Method: (§1) Compounds 1 and 2 were submitted to the National Cancer Institute NCI-60 Tumor Cell Screening Program (NCI number 800,700 and 800,701, respectively) for evaluation against the 60 cell line NCI panel at a single dose of 10 μM. […] Leukemia and breast cancer cell lines comprised the only cancer groups that were uniformly sensitive to both 1 and 2, with the greatest sensitivity seen in the leukemia SR cell line.
(§2) Compounds 1 and 2 were submitted to the NCI for growth inhibition screening against its panel of 60 cancer cell lines. The NCI screening protocol has extensively been described [[53], [54], [55], [56]]. Briefly, cancerous cell lines were grown in RPMI 1640 medium containing 5% fetal bovine serum and 2 mM L-glutamine. Depending on the doubling time of each cell line, 5000–40,000 cells were seeded in 96-well plates for 24 h. Cells were then treated with compounds 1 or 2 at a concentration of 10 μM and incubated for 48 h at 37 °C in a humidified atmosphere containing 5% CO2. The cells were then fixed and stained with sulforhodamine B (SRB) to determine their viability. The data were analyzed using a program called COMPARE to determine the percent growth inhibition of each compound.

A549 = settings: Homo sapiens; Non-Small Cell Lung A549, 10 μM, 48 h; read-out: Percent growth inhibition
Method: as §1, §2

ACHN = settings: Homo sapiens, Renal ACHN, 48 h, read-out: Percent growth inhibition
Method: as §1, §2

BT-549 = settings: Homo sapiens; Breast BT-549, 10 μM, 48 h; read-out: Percent growth inhibition
Method: as §1, §2

CAKI-1 = settings: Homo sapiens; Renal CAKI-1, 10 μM, 48 h; read-out: Percent growth inhibition
Method: as §1, §2

COLO205 = settings: Homo sapiens, COLO 205; Colon COLO205, 10 μM, 48 h; read-out: Percent growth inhibition
Method: as §1, §2

DU-145 = settings: Homo sapiens; Prostate DU-145, 10 μM, 48 h; read-out: Percent growth inhibition
Method: as §1, §2

HCT-116 = settings: Homo sapiens, HCT-116, 48 h, Colon HCT-116, 10 μM, read-out: Percent growth inhibition
Method: as §1, §2

HOP-92 = settings: Homo sapiens; Non-Small Cell Lung HOP-92, 10 μM, 48 h; read-out: Percent growth inhibition
Method: as §1, §2

M14 = settings: Homo sapiens; Melanoma M14, 10 μM, 48 h; read-out: Percent growth inhibition
Method: as §1, §2

MDA-MB-435 = settings: Homo sapiens; Melanoma MDA-MB-435, 10 μM, 48 h; read-out: Percent growth inhibition
Method: as §1, §2

NCI-H226 = settings: Homo sapiens, NCI-H226, 48 h, Non-Small Cell Lung NCI-H226, 10 μM, read-out: Percent growth inhibition
Method: as §1, §2

NCI-H23 = settings: Homo sapiens; Non-Small Cell Lung NCI-H23, 10 μM, 48 h; read-out: Percent growth inhibition
Method: as §1, §2

NCI-H322M = settings: Homo sapiens, Non-Small Cell Lung NCI-H322M, 48 h, read-out: Percent growth inhibition
Method: as §1, §2

NCI-H460 = settings: Homo sapiens; Non-Small Cell Lung NCI-H460, 10 μM, 48 h; read-out: Percent growth inhibition
Method: as §1, §2

NCI-H522 = settings: Homo sapiens; Non-Small Cell Lung NCI-H522, 10 μM, 48 h; read-out: Percent growth inhibition
Method: as §1, §2

NCI/ADR-RES = settings: Homo sapiens, Ovarian NCI/ADR-RES, 48 h, read-out: Percent growth inhibition
Method: as §1, §2

OVCAR-5 = settings: Homo sapiens; Ovarian OVCAR-5, 10 μM, 48 h; read-out: Percent growth inhibition
Method: as §1, §2

PC-3 = settings: Homo sapiens; Prostate PC-3, 10 μM, 48 h; read-out: Percent growth inhibition
Method: as §1, §2

SK-MEL-28 = settings: Homo sapiens; Melanoma SK-MEL-28, 10 μM, 48 h; read-out: Percent growth inhibition
Method: as §1, §2

SK-MEL-5 = settings: Homo sapiens; Melanoma SK-MEL-5, 10 μM, 48 h; read-out: Percent growth inhibition
Method: as §1, §2

SK-OV-3 = settings: Homo sapiens, SK-OV-3, 48 h, Ovarian SK-OV-3, 10 μM, read-out: Percent growth inhibition
Method: as §1, §2

SNB-19 = settings: Homo sapiens; CNS SNB-19, 10 μM, 48 h; read-out: Percent growth inhibition
Method: as §1, §2

SNB-75 = settings: Homo sapiens; CNS SNB-75, 10 μM, 48 h; read-out: Percent growth inhibition
Method: as §1, §2

TK-10 = settings: Homo sapiens; Renal TK-10, 10 μM, 48 h; read-out: Percent growth inhibition
Method: as §1, §2

U251 = settings: Homo sapiens, U-251; CNS U251, 10 μM, 48 h; read-out: Percent growth inhibition
Method: as §1, §2

UACC-257 = settings: Homo sapiens; Melanoma UACC-257, 10 μM, 48 h; read-out: Percent growth inhibition
Method: as §1, §2

UO-31 = settings: Homo sapiens; Renal UO-31, 10 μM, 48 h; read-out: Percent growth inhibition
Method: as §1, §2

Row | SMILES | inhibition at 10 µM (A498) [%] | inhibition at 10 µM (A549) [%] | inhibition at 10 µM (ACHN) [%] | inhibition at 10 µM (BT-549) [%] | inhibition at 10 µM (CAKI-1) [%] | inhibition at 10 µM (COLO205) [%] | inhibition at 10 µM (DU-145) [%] | inhibition at 10 µM (HCT-116) [%] | inhibition at 10 µM (HOP-92) [%] | inhibition at 10 µM (M14) [%] | inhibition at 10 µM (MDA-MB-435) [%] | inhibition at 10 µM (NCI-H226) [%] | inhibition at 10 µM (NCI-H23) [%] | inhibition at 10 µM (NCI-H322M) [%] | inhibition at 10 µM (NCI-H460) [%] | inhibition at 10 µM (NCI-H522) [%] | inhibition at 10 µM (NCI/ADR-RES) [%] | inhibition at 10 µM (OVCAR-5) [%] | inhibition at 10 µM (PC-3) [%] | inhibition at 10 µM (SK-MEL-28) [%] | further results
1 | CCn1cc(Nc2ncc3nnn(-c4ccc(C(=O)OC)cc4)c3n2)cn1 [Compound 1, Methyl 4-(5-((1-ethyl-1H-pyrazol-4-yl)amino)-3H-[1,2,3]triazolo[4,5-d]pyrimidin-3-yl)benzoate] | 10.5 | 18.6 | 1.27 | 24.2 | 1.59 | 16.3 | -9.96 | 42.7 | -8.76 | 17 | 9.99 | 34.6 | 3.87 | -3.7 | 0.26 | 24.3 | -8.6 | -5.43 | 16.7 | -4.08 | inhibition at 10 µM (SK-MEL-5): 40.4%; inhibition at 10 µM (SK-OV-3): 22%; inhibition at 10 µM (SNB-19): -9.34%; inhibition at 10 µM (SNB-75): 23.4%; inhibition at 10 µM (TK-10): 6.48%; inhibition at 10 µM (U251): 27.6%; inhibition at 10 µM (UACC-257): 13.6%; inhibition at 10 µM (UO-31): 10.4%
2 | CCOc1ccc(-n2nnc3cnc(Nc4cnn(CC)c4)nc32)cc1 [Compound 2, 3-(4-Ethoxyphenyl)-N-(1-ethyl-1H-pyrazol-4-yl)-3H-[1,2,3]triazolo[4,5-d]pyrimidin-5-amine] | 44.1 | 25.2 | 17.8 | 16.2 | 0.05 | 29.9 | 2.46 | 43.7 | -5.76 | 10.9 | 20 | 46.3 | 5.25 | -5.07 | 5.14 | 31.8 | 1.5 | -11.8 | 23.4 | -2.62 | inhibition at 10 µM (SK-MEL-5): 26.4%; inhibition at 10 µM (SK-OV-3): 46.3%; inhibition at 10 µM (SNB-19): -0.19%; inhibition at 10 µM (SNB-75): 44.6%; inhibition at 10 µM (TK-10): 1.47%; inhibition at 10 µM (U251): 24.3%; inhibition at 10 µM (UACC-257): 21.3%; inhibition at 10 µM (UO-31): 3.24%
